Patent US10392391B2 (Vertex Pharmaceuticals Incorporated, priority 2012, dated 2019)
Like-named read-outs stand apart in the source and are kept apart here.

Biological target: ATR kinase (full-length ATR) (Homo sapiens (Human), UniProt Q13535)
Experiment: ATR inhibition assay (radioactive-phosphate incorporation)
Assay type: biochemical
Description: Compounds were screened for their ability to inhibit ATR kinase using a radioactive-phosphate incorporation assay. Assays were carried out in a mixture of 50 mM Tris/HCl (pH 7.5), 10 mM MgCl2 and 1 mM DTT. Final substrate concentrations were 10 μM [γ-33P]ATP (3mCi 33P ATP/mmol ATP, Perkin Elmer) and 800 μM target peptide ([…]) (SEQ ID NO:1).
Assays were carried out at 25° C. in the presence of 5 nM full-length ATR. An assay stock buffer solution was prepared containing all of the reagents listed above, with the exception of ATP and the test compound of interest. 13.5 μL of the stock solution was placed in a 96 well plate followed by addition of 2 μL of DMSO stock containing serial dilutions of the test compound (typically starting from a final concentration of 15 μM with 3-fold serial dilutions) in duplicate (final DMSO concentration 7%). The plate was pre-incubated for 10 minutes at 25° C. and the reaction initiated by addition of 15 μL [γ-33P]ATP (final concentration 10 μM).
The reaction was stopped after […] by the addition of 30 μL 0.1M phosphoric acid containing 2 mM ATP. A multiscreen phosphocellulose filter 96-well plate (Millipore, Cat no. MAPHN0B50) was pretreated with 100 μL 0.2M phosphoric acid prior to the addition of […] of the stopped assay mixture. The plate was washed with 5×200 μL 0.2M phosphoric acid. After drying, 100 μL Optiphase ‘SuperMix’ liquid scintillation cocktail (Perkin Elmer) was added to the well prior to scintillation counting (1450 Microbeta Liquid Scintillation Counter, Wallac).
After removing mean background values for all of the data points, Ki(app) data were calculated from non-linear regression analysis of the initial rate data using the Prism software package (GraphPad Prism version 3.0cx for Macintosh, GraphPad Software, San Diego Calif., USA).

[1] = Ki(app), 5 nM full-length ATR, 10 μM ATP, 25° C.

ATR kinase (full-length ATR), sequence (Q13535 whole entry): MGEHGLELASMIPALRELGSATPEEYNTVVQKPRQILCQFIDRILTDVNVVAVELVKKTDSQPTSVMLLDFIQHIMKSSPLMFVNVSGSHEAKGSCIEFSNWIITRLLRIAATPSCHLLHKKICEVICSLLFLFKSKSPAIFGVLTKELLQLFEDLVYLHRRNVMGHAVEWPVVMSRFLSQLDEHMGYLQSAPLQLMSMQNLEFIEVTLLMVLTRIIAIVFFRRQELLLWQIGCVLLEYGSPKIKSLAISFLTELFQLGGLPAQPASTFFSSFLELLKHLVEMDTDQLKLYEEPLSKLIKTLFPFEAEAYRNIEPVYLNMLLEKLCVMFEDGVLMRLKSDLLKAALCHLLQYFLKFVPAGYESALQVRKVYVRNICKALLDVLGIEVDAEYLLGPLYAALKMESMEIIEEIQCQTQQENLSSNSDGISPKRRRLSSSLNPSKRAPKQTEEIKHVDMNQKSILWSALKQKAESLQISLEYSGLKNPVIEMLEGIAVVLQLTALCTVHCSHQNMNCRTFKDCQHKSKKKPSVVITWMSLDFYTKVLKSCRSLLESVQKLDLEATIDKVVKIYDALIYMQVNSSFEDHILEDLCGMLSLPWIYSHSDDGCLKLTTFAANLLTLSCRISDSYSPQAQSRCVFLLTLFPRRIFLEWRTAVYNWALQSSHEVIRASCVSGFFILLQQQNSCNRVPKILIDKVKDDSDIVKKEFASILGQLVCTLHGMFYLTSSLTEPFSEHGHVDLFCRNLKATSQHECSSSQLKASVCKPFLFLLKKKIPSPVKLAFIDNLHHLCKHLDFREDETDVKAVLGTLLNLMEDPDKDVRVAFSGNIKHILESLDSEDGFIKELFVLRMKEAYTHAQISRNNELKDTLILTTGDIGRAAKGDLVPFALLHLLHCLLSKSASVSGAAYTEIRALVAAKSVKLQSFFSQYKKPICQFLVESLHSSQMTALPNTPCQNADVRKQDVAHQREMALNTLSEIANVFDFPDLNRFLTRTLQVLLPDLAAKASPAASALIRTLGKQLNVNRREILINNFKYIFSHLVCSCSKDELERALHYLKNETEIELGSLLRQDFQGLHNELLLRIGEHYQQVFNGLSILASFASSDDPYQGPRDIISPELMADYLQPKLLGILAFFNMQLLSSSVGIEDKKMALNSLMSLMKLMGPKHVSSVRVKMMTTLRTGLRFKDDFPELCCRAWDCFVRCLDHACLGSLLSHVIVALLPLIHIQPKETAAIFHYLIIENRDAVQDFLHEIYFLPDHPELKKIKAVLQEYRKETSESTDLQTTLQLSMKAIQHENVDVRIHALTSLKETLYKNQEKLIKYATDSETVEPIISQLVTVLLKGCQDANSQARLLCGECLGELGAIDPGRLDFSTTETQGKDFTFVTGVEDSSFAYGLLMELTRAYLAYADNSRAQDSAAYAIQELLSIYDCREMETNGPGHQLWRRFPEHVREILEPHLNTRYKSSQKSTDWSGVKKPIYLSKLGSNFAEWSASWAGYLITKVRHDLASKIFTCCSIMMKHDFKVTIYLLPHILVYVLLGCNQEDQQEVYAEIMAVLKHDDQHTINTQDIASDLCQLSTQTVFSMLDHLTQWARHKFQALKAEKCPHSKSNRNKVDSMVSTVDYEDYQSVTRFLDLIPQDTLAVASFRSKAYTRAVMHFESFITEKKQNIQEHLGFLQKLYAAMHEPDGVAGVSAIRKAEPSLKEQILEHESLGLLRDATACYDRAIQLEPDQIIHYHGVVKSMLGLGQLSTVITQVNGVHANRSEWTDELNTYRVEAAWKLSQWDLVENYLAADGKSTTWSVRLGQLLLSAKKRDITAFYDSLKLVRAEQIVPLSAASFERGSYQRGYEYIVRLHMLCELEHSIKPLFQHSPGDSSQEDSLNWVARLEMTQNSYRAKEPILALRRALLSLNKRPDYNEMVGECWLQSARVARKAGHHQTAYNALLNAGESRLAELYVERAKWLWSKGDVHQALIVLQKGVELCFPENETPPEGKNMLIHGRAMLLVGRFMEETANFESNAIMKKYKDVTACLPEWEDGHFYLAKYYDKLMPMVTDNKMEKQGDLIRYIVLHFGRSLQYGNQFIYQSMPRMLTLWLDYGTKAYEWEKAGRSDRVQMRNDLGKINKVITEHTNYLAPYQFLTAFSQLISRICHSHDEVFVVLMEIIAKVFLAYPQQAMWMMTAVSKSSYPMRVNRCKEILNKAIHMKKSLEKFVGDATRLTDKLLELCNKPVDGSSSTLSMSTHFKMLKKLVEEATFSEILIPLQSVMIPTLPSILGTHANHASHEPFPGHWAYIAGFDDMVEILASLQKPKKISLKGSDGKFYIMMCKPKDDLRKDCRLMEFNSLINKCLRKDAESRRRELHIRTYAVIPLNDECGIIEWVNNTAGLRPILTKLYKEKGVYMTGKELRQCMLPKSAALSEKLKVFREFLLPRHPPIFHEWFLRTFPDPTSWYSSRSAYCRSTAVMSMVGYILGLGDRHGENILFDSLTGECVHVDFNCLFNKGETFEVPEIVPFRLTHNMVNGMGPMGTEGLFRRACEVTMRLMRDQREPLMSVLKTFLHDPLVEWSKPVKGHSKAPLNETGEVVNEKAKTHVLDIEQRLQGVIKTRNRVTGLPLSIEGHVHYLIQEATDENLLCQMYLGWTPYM

Ki [1] [nM]	Ki [nM]	Compound
10 to 1000	–	CC1(O)CCN(c2ccncc2NC(=O)c2c(N)nn3cc(Cl)cnc23)CC1 [I-N-66, 2-amino-6-chloro-N-(4-(4-hydroxy-4-methylpiperidin-1-yl)pyridin-3-yl)pyrazolo[1,5-a]pyrimidine-3-carboxamide]
10 to 1000	–	Nc1nn2cc(F)cnc2c1C(=O)Nc1cnccc1OC1CCOC1 (racemic) [I-O-15, (R,S)-2-amino-6-fluoro-N-(4-((tetrahydrofuran-3-yl)oxy)pyridin-3-yl)pyrazolo[1,5-a]pyrimidine-3-carboxamide]
< 10	–	N#CCc1cnc2c(C(=O)Nc3cnccc3OCCO)c(N)nn2c1 [I-O-33, 2-amino-6-(cyanomethyl)-N-(4-(2-hydroxyethoxy)pyridin-3-yl)pyrazolo[1,5-a]pyrimidine-3-carboxamide]
10 to 1000	–	CN1CCN(c2c(Cl)cncc2NC(=O)c2c(N)nn3cc(F)cnc23)CC1 [I-N-85, 2-amino-N-(5-chloro-4-(4-methylpiperazin-1-yl)pyridin-3-yl)-6-fluoropyrazolo[1,5-a]pyrimidine-3-carboxamide]
< 10	–	COc1cncc(NC(=O)c2c(N)nn3cc(F)cnc23)c1-c1cncn1C [I-C-81, 2-amino-6-fluoro-N-(5-methoxy-4-(1-methyl-1H-imidazol-5-yl)pyridin-3-yl)pyrazolo[1,5-a]pyrimidine-3-carboxamide]
10 to 1000	–	Nc1nn2cc(F)cnc2c1C(=O)Nc1cnccc1N1CCC(C(=O)N2CCC2)CC1 [I-G-77, 2-amino-N-(4-(4-(azetidine-1-carbonyl)piperidin-1-yl)pyridin-3-yl)-6-fluoropyrazolo[1,5-a]pyrimidine-3-carboxamide]
10 to 1000	–	CN1CCN(c2c(F)cncc2NC(=O)c2c(N)nn3cc(F)cnc23)CC1 [I-N-15, 2-amino-6-fluoro-N-(5-fluoro-4-(4-methylpiperazin-1-yl)pyridin-3-yl)pyrazolo[1,5-a]pyrimidine-3-carboxamide]
10 to 1000	–	Nc1nn2cc(Cl)cnc2c1C(=O)Nc1cnccc1OCC(F)(F)F [I-O-59, 2-amino-6-chloro-N-(4-(2,2,2-trifluoroethoxy)pyridin-3-yl)pyrazolo[1,5-a]pyrimidine-3-carboxamide]
10 to 1000	–	Cc1nc(C)n(-c2ccncc2NC(=O)c2c(N)nn3cc(F)cnc23)n1 [I-N-218, 2-amino-N-(4-(3,5-dimethyl-1H-1,2,4-triazol-1-yl)pyridin-3-yl)-6-fluoropyrazolo[1,5-a]pyrimidine-3-carboxamide]
10 to 1000	–	Cc1ncccc1-c1ccncc1NC(=O)c1c(N)nn2cc(F)cnc12 [I-C-20, 2-amino-6-fluoro-N-(2-methyl-[3,4′-bipyridin]-3′-yl)pyrazolo[1,5-a]pyrimidine-3-carboxamide]
10 to 1000	–	Cn1c(-c2ccncc2NC(=O)c2c(N)nn3cc(F)cnc23)cccc1=O [I-C-58, 2-amino-6-fluoro-N-(1-methyl-6-oxo-1,6-dihydro-[2,4′-bipyridin]-3′-yl)pyrazolo[1,5-a]pyrimidine-3-carboxamide]
10 to 1000	–	Cn1ccnc1-c1ccncc1NC(=O)c1c(N)nn2cc(F)cnc12 [I-C-55, 2-amino-6-fluoro-N-(4-(1-methyl-1H-imidazol-2-yl)pyridin-3-yl)pyrazolo[1,5-a]pyrimidine-3-carboxamide]

Second part, the molecule before the results:

Compound	Ki [1] [nM]	Ki [nM]
Nc1nn2cc(F)cnc2c1C(=O)Nc1cncc(F)c1N1CCN(C(=O)C2CCOC2)CC1 (stereo not shown) [I-N-274, 2-amino-6-fluoro-N-(5-fluoro-4-(4-(tetrahydrofuran-3-carbonyl)piperazin-1-yl)pyridin-3-yl)pyrazolo[1,5-a]pyrimidine-3-carboxamide]	10 to 1000	–
Nc1nn2cc(F)cnc2c1C(=O)Nc1cncc(Cl)c1N1CCN(C2CCOC2)CC1 (stereo not shown) [I-N-124, 2-amino-N-(5-chloro-4-(4-(tetrahydrofuran-3-yl)piperazin-1-yl)pyridin-3-yl)-6-fluoropyrazolo[1,5-a]pyrimidine-3-carboxamide]	10 to 1000	–
COCCN(C)C(=O)C1CCN(c2c(F)cncc2NC(=O)c2c(N)nn3cc(F)cnc23)CC1 [I-G-40, 2-amino-6-fluoro-N-(5-fluoro-4-(4-((2-methoxyethyl)(methyl)carbamoyl)piperidin-1-yl)pyridin-3-yl)pyrazolo[1,5-a]pyrimidine-3-carboxamide]	10 to 1000	–
Nc1nn2cc(Cl)cnc2c1C(=O)Nc1cnccc1N1CCN(C2CCC2)CC1 [I-N-48, 2-amino-6-chloro-N-(4-(4-cyclobutylpiperazin-1-yl)pyridin-3-yl)pyrazolo[1,5-a]pyrimidine-3-carboxamide]	10 to 1000	–
Nc1nn2cc(Cl)cnc2c1C(=O)Nc1cnccc1OC1CCNCC1 [I-O-80, 2-amino-6-chloro-N-(4-(piperidin-4-yloxy)pyridin-3-yl)pyrazolo[1,5-a]pyrimidine-3-carboxamide]	10 to 1000	–
Nc1nn2cc(Cl)cnc2c1C(=O)Nc1cnccc1N1CCN2CCC1CC2 [I-N-56, N-(4-(1,4-diazabicyclo[3.2.2]nonan-4-yl)pyridin-3-yl)-2-amino-6-chloropyrazolo[1,5-a]pyrimidine-3-carboxamide]	10 to 1000	–
N#CCc1cnc2c(C(=O)Nc3cnccc3N3CCC(O)CC3)c(N)nn2c1 [I-N-83, 2-amino-6-(cyanomethyl)-N-(4-(4-hydroxypiperidin-1-yl)pyridin-3-yl)pyrazolo[1,5-a]pyrimidine-3-carboxamide]	< 10	–
CN1CCN(C(=O)C2(C)CCN(c3c(F)cncc3NC(=O)c3c(N)nn4cc(F)cnc34)CC2)CC1 [I-G-54, 2-amino-6-fluoro-N-(5-fluoro-4-(4-methyl-4-(4-methylpiperazine-1-carbonyl)piperidin-1-yl)pyridin-3-yl)pyrazolo[1,5-a]pyrimidine-3-carboxamide]	10 to 1000	–
Nc1nn2cc(F)cnc2c1C(=O)Nc1cncc(F)c1N1CCC(S(=O)(=O)N2CCOCC2)CC1 [I-N-155, 2-amino-6-fluoro-N-(5-fluoro-4-(4-(morpholinosulfonyl)piperidin-1-yl)pyridin-3-yl)pyrazolo[1,5-a]pyrimidine-3-carboxamide]	10 to 1000	–
CN1CCN(c2ccncc2NC(=O)c2c(N)nn3cc(C(C)(C)C#N)cnc23)CC1 [I-N-76, 2-amino-6-(2-cyanopropan-2-yl)-N-(4-(4-methylpiperazin-1-yl)pyridin-3-yl)pyrazolo[1,5-a]pyrimidine-3-carboxamide]	–	1000 to 5000
CC(C#N)c1cnc2c(C(=O)Nc3cnccc3N3CCN(C4COC4)CC3)c(N)nn2c1 (stereo not shown) [I-N-143, 2-amino-6-(1-cyanoethyl)-N-(4-(4-(oxetan-3-yl)piperazin-1-yl)pyridin-3-yl)pyrazolo[1,5-a]pyrimidine-3-carboxamide]	10 to 1000	–
CN1CC[C@@H](Oc2ccncc2NC(=O)c2c(N)nn3cc(Cl)cnc23)C1 [I-O-63, (R)-2-amino-6-chloro-N-(4-((1-methylpyrrolidin-3-yl)oxy)pyridin-3-yl)pyrazolo[1,5-a]pyrimidine-3-carboxamide]	10 to 1000	–
Nc1nn2cc(Cl)cnc2c1C(=O)Nc1cncc(F)c1N1CCN(C2COC2)CC1 [I-N-117, 2-amino-6-chloro-N-(5-fluoro-4-(4-(oxetan-3-yl)piperazin-1-yl)pyridin-3-yl)pyrazolo[1,5-a]pyrimidine-3-carboxamide]	10 to 1000	–
CC1(N2CCN(C(=O)C3CCN(c4c(F)cncc4NC(=O)c4c(N)nn5cc(F)cnc45)CC3)CC2)COC1 [I-G-92, 2-amino-6-fluoro-N-(5-fluoro-4-(4-(4-(3-methyloxetan-3-yl)piperazine-1-carbonyl)piperidin-1-yl)pyridin-3-yl)pyrazolo[1,5-a]pyrimidine-3-carboxamide]	10 to 1000	–
COc1cc(Cl)ncc1NC(=O)c1c(N)nn2cc(CC#N)cnc12 [I-O-27, 2-amino-N-(6-chloro-4-methoxypyridin-3-yl)-6-(cyanomethyl)pyrazolo[1,5-a]pyrimidine-3-carboxamide]	< 10	–
Nc1nn2cc(Cl)cnc2c1C(=O)Nc1cnccc1O[C@@H]1CCOC1 [I-O-54, (R)-2-amino-6-chloro-N-(4-((tetrahydrofuran-3-yl)oxy)pyridin-3-yl)pyrazolo[1,5-a]pyrimidine-3-carboxamide]	10 to 1000	–
C[C@H]1CN(C(=O)C2CCN(c3c(F)cncc3NC(=O)c3c(N)nn4cc(F)cnc34)CC2)CCN1 [I-G-61, (S)-2-amino-6-fluoro-N-(5-fluoro-4-(4-(3-methylpiperazine-1-carbonyl)piperidin-1-yl)pyridin-3-yl)pyrazolo[1,5-a]pyrimidine-3-carboxamide]	10 to 1000	–
Nc1nn2cc(F)cnc2c1C(=O)Nc1cncc(F)c1N1CCN(C(=O)C2COC2)CC1 [I-N-278, 2-amino-6-fluoro-N-(5-fluoro-4-(4-(oxetane-3-carbonyl)piperazin-1-yl)pyridin-3-yl)pyrazolo[1,5-a]pyrimidine-3-carboxamide]	10 to 1000	–
Cc1cncc(NC(=O)c2c(N)nn3cc(F)cnc23)c1N1CCC(C(=O)N2CCN(C)CC2)CC1 [I-G-55, 2-amino-6-fluoro-N-(5-methyl-4-(4-(4-methylpiperazine-1-carbonyl)piperidin-1-yl)pyridin-3-yl)pyrazolo[1,5-a]pyrimidine-3-carboxamide]	10 to 1000	–
